The values below come from patent publication US12565480B2, “Thiophene derivatives as xanthine oxidase inhibitors and application thereof” (Tonghua Dongbao Pharmaceutical Co., Ltd., priority 2019, dated 2026).

A short description of data set [1]: Pharmacokinetics in SD rats. How it is done: Pharmacokinetics of test compounds in SD rats
Sprague Dawley Rat (male, 180-350 g, 6-10 weeks old, Charles River Laboratories, Beijing)
Six male SD rats were divided into 2 groups. […] Whole blood was collected at 0 (the gavage group only), 0.083 (intravenous only), 0.25, 0.5, 1, 2, 4, 8 and 24 hours after administration. Whole blood was centrifuged at 3200 g at 4° C. for 10 min to obtain plasma.

In a further data set the target is CYP2D6 (Homo sapiens (Human), UniProt P10635). Briefly: Cytochrome P450 isozyme inhibitory activity test, CYP2D6. The class given is in vitro ADME. Conditions: human liver microsomes; read-out: Cytochrome P450 isoenzyme IC50, CYP2D6. As for the experimental part:
(§1) Cytochrome P450 Isozyme Inhibitory Activity Test
(§2) The inhibitory activities of test compounds against different subtypes of human cytochrome P450 isoenzymes were determined.
(§3) Preparing test compounds, standard inhibitor (100×final concentration) and mixed substrate working solutions; Microsomes (purchased from Corning Inc) frozen in −80° C. freezer was taken out and thawed. 20 μL of the test compound and standard inhibitor solution were added to the corresponding wells, and at the same time 20 μL of the corresponding solvent was added to the no inhibitor control wells (NIC) and blank control wells (Blank); then 20 μL of mixed substrate solution was added to the corresponding wells, except for Blank wells (adding 20 μL of Phosphate Buffer (PB) to Blank wells); the human liver microsome solution was prepared (marking the date after use and putting back in the refrigerator immediately), then 158 μL of human liver microsome solution was immediately added to all wells; the above sample plate was pre-incubated in a 37° C. water bath, and then coenzyme factor (NADPH) solution was prepared; 10 minutes later, 20 μL of NADPH solution was added to all wells. […]
In general terms: Liver microsomes are vesicles of endoplasmic reticulum, rich in cytochrome P450 enzymes.

The target of a further data set is CYP1A2 (Homo sapiens (Human), UniProt P05177). In words: Cytochrome P450 isozyme inhibitory activity test, CYP1A2. Conditions: human liver microsomes; read-out: Cytochrome P450 isoenzyme IC50, CYP1A2. Type of data set: in vitro ADME. As for the experimental part: as §1, §2, §3
The next data set has as its target CYP2C9 (Homo sapiens (Human), UniProt P11712). In words: Cytochrome P450 isozyme inhibitory activity test, CYP2C9. The class given is in vitro ADME. As to conditions: human liver microsomes; read-out: Cytochrome P450 isoenzyme IC50, CYP2C9. How it is done: as §1, §2, §3
A further data set has as its target CYP2C19 (Homo sapiens (Human), UniProt P33261). Briefly: Cytochrome P450 isozyme inhibitory activity test, CYP2C19. The class given is in vitro ADME. As to conditions: human liver microsomes; read-out: Cytochrome P450 isoenzyme IC50, CYP2C19. As for the experimental part: as §1, §2, §3
The subject of another data set is Rat hepatocytes. Briefly: Hepatocytes metabolic stability (HMS), rat hepatocytes. The class given is in vitro ADME. As to conditions: for Intrinsic hepatic clearance, Rat: CLint(liver). How it is done:
(§4) Assay Example 3: Hepatocytes Metabolic Stability (HMS) Study
(§5) To test the metabolic stability of the test sample in human and rat hepatocytes.
(§6) 2.1 Test compound (10 mM), control substance: 7-Ethoxycoumarin (30 mM), 7-Hydroxycoumarin (control substance, 30 mM)
(§7) 2.3 Buffer System: • Thawing medium: Williams' medium E containing 5% fetal bovine serum, 30% Percoll solution and other auxiliary materials • Incubation medium: Williams medium E (without phenol red) containing 2 mM L-glutamine and 25 mM hydroxyethylpiperazine ethane sulfonic acid. • Stop solution: 200 ng/mL of tosylbutyramide and labetalol in acetonitrile as internal standards. • Dilution solution: Ultrapure water. 3. Method of the Assay • 1) The exact amount of positive control compound was dissolved in dimethyl sulfoxide (DMSO) to give a 30 mM solution • 2) 10 mM test compound and 30 mM positive control compound were diluted to 1 mM and 3 mM with DMSO in 96-well plates. • 3) 1 mM test compound and 3 mM positive control compound was diluted into 100 μM and 300 μM quantification solutions with acetonitrile. • 4) The cryopreserved cells were thawed, dissociated and suspended in culture medium, and then diluted to 0.5×10^6 cells/mL with pre-warmed culture medium. • 5) 198 μL of pre-warmed cell suspension was added to a 96-well plate. • 6) 100 μL of stop solution (acetonitrile containing 200 ng/mL tosylbutyramide and 200 ng/mL labetalol as internal standard) was transferred in a set of pre-labeled 96-well plates. • 7) 2 μL of 100 μM test compound or 300 μM positive control quantitation solution was added in duplicate to each well of the 96-well plate. • 8) The TO samples were mixed to achieve uniform suspension over about 1 min, and then 20 μL of each sample was immediately transferred into wells containing 100 μL of ice-cold stop solution followed by mixing. • 9) All plates were incubated at 37° C. in 5% CO2 in a 95% humidified incubator, with constant shaking at approximately 600 rpm for reaction. • 10) At 15, 30, 60 and 90 min, samples were mixed, and then 20 μL of each sample was transferred to wells containing 100 μL of ice-cold stop solution at each time point and mixed. • 11) Medium control (MC) sample plates (labeled as TO-MC and T90-MC) were prepared at TO and T90 by adding the same components to each well except for the cell suspension. […]
(§8) The elimination rate constant k of the test compound and the control compound in hepatocytes was calculated by plotting the logarithm of the residual ratio vs time, and the half-life (T1/2) and in vitro intrinsic clearance rate (CLint) were obtained by using the elimination rate k. […]

The next data set concerns Human hepatocytes. Briefly: Hepatocytes metabolic stability (HMS), human hepatocytes. The class given is in vitro ADME. Conditions: for Intrinsic hepatic clearance, Human: CLint(liver). How it is done: as §4, §5, §6, §7, §8
The next data set deals with MDR1-MDCK II cells. Conditions: for Papp (AB) / Papp (BA): 2 μM, pH 7.4, […]; for Papp (AB): A to B; for Papp (BA): B to A. As for the experimental part: Membrane Permeability MDR1 Test
MDR1-MDCK II cells are Madin-Darby canine kidney cells transfected with human MDR1 gene, which can stably express high P-gp. The aim of this study was to test the bidirectional permeability of compounds across the MDR1-MDCK II cell model and to assess whether they are transported by efflux.
Test compounds were diluted in transport buffer (HBSS, 10 mM Hepes with DMSO, pH 7.4) to a concentration of 2 μM (DMSO<1%) and applied on the apical or basolateral side of the cell monolayer. The compound to be tested was tested in duplicate in the direction of from A to B or from B to A, digoxin was tested at 10 μM in the direction of from A to B or from B to A, while nadolol and metoprolol were tested at 2 μM from A to B. Plates were incubated in a CO2 incubator at 37±1° C. in a saturated humidity of 5% CO2 for 2.5 hours without shaking. In addition, the efflux ratio of each compound was determined, and for the test and reference compounds quantitation was conducted. Analysis was carried out by LC/MS/MS according to the peak area ratio of analyte/IS. After the transport assay, the Lucifer Yellow exclusion assay was used to determine integrity of the cell monolayer. The buffer was removed from the apical and basolateral compartments, then 75 μL of 100 μM luciferin yellow was added to the transport buffer, and 250 μL of the transport buffer was added to the apical and basolateral compartments, respectively. The plate was incubated at 37° C., 5% CO2 and saturated humidity for 30 minutes without shaking. After 30 minutes of incubation, 20 μL of luciferin yellow sample was withdrawn from the apical, followed by the addition of 60 μL of transport buffer. An 80 μL luciferin yellow sample was then collected basolaterally.
The apparent permeability coefficient (Papp, cm/s), efflux rate and recovery rate were calculated using the following formulae.
[formula] dCr/dt is the cumulative concentration of the compound at the receiver end over unit time (μM/s); Vr is the volume of the receiver end solution (0.075 mL and 0.250 mL for the apical and basal ends, respectively); Ais the relative surface area (0.0804 cm^2) of the cell monolayer; C0 is the initial concentration (nM) of the test substance at the administration end or the peak area ratio of the reference substance.
[formula] C0 is the initial concentration (nM) of the test substance at the administration end or the peak area ratio of the reference substance; Va is the volume of the administration end (0.075 mL for the apical side and 0.250 mL for the basal side); Cd and Cr are the final concentration (nM) of the test substance at the administration end and the receiver end or the peak area ratio of the reference substance.

The next data set addresses CYP3A4-M (Homo sapiens (Human), UniProt P08684). Briefly: Cytochrome P450 isozyme inhibitory activity test, CYP3A4-M. The class given is in vitro ADME. Conditions: human liver microsomes; read-out: Cytochrome P450 isoenzyme IC50, CYP3A4-M. As for the experimental part:
as §1, §2, §3

The conditions of data set [2]: 2 subjects; cited from earlier work.
The conditions of data set [3]: high dose of 80 mg/day; cited from earlier work.

CYP2C9, sequence (P11712 whole entry): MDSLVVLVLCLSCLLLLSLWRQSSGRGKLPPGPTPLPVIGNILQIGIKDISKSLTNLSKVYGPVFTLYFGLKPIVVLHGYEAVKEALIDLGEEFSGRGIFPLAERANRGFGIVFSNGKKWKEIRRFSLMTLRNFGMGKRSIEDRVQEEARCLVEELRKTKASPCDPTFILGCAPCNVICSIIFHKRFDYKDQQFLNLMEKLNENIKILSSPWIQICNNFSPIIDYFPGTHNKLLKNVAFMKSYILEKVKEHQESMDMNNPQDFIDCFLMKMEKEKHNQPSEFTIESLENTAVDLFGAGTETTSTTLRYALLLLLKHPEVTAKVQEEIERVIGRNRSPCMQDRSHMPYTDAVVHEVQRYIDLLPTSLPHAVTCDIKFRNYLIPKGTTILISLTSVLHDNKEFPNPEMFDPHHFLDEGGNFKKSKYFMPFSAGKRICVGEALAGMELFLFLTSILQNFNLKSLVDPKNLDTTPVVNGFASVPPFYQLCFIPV
CYP2C19, sequence (P33261 whole entry): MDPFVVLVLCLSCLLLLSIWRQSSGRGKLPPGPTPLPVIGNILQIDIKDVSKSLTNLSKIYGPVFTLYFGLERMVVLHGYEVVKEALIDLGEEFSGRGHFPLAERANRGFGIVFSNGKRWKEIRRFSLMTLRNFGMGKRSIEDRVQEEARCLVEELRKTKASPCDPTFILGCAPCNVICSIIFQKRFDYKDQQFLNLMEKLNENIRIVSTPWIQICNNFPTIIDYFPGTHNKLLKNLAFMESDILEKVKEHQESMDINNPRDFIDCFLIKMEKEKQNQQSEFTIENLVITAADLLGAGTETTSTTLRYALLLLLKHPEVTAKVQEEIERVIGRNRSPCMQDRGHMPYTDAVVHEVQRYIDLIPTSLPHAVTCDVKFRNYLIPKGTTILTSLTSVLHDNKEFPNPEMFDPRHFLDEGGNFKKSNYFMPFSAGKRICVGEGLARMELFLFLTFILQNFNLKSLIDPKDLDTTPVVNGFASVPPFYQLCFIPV
CYP3A4-M, sequence (P08684 whole entry): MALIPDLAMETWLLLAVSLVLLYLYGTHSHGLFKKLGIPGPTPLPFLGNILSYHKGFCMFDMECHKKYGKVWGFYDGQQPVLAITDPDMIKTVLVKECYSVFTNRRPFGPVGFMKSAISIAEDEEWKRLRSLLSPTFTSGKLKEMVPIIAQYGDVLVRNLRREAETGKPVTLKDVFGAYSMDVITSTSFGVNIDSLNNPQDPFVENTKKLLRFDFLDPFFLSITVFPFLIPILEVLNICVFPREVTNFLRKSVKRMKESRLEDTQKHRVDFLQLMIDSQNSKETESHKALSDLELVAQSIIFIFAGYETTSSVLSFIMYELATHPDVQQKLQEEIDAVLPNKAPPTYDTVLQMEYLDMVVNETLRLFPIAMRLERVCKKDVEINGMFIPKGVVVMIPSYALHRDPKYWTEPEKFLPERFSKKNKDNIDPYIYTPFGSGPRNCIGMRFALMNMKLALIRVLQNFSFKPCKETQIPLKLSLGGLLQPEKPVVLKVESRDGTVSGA
CYP1A2, sequence (P05177 whole entry): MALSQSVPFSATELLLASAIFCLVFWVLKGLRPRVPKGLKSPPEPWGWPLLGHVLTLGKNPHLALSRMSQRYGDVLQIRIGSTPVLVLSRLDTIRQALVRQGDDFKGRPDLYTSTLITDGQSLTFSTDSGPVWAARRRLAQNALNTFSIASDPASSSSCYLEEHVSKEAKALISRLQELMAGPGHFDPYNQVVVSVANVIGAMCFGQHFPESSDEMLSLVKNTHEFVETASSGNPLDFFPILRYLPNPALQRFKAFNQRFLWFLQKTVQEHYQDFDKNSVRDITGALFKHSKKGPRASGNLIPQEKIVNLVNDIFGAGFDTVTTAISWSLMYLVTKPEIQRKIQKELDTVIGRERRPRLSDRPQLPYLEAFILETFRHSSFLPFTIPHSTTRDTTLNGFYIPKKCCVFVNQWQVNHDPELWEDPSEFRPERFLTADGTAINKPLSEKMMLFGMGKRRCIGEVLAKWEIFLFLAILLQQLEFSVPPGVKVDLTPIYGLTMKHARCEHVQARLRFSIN
CYP2D6, sequence (P10635 whole entry): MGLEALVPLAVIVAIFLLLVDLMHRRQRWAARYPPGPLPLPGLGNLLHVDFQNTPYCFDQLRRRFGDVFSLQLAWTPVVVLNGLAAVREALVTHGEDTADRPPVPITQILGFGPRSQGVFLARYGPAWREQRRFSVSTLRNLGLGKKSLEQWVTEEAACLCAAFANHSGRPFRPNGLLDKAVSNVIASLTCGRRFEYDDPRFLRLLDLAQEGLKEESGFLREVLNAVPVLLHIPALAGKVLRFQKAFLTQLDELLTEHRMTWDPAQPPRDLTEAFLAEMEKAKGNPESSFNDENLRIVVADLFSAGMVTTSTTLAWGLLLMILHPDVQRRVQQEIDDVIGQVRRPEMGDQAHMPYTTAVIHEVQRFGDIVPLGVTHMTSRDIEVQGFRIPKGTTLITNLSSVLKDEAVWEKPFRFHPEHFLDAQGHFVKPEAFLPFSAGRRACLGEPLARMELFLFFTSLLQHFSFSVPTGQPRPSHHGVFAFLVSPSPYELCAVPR

By Vdss is commonly meant a proportionality between amount in the body and measured concentration, not a real space. A high value points to wide distribution into tissue. For orientation: Cmax means the highest concentration seen after dosing. What is called Tmax is the time at which the peak concentration occurs. In general, IC50 refers to the point on the concentration scale where inhibition reaches its midpoint. With `N#Cc1sc(-c2ccc(C(=O)O)c(O)c2)c2c1CCC(F)(F)C2` [Compound 2], in [1], the “Pharmacokinetic properties (in words)” value is on record as “good pharmacokinetic properties”. In data set [1] (2.89 mpk Intravenous injection), this molecule gave an AUC0-inf of 41.8 µM·h, a C0 of 96.6 µM, a Cl of 3.59 mL/min/kg and a T1/2 of 3.74 h. In addition, the Vdss in data set [1] (2.89 mpk Intravenous injection) amounted to 0.32 L/kg. Also, in data set [1] (8.58 mpk Oral), the AUC0-inf stood at 86.6 µM·h, the Cmax came out at 27.5 µM, the T1/2 was 2.47 h and the Tmax was 0.5 h. The Bioavailability in data set [1] (8.58 mpk Oral vs 2.89 mpk Intravenous injection) came out at 62.1%. For the same molecule, in data set [1] (oral), the “Oral bioavailability (in words)” value is given as “high oral bioavailability”. At CYP2D6, the IC50 was > 50 µM. For the same molecule, on CYP1A2, the IC50 was > 50 µM. Further, the IC50 at CYP2C9 was 18.1 µM. The IC50 on CYP2C19 was > 50 µM. Also, in the data set on Rat hepatocytes, the “Clearance in rat hepatocytes (in words)” value was “high clearance” and the “Intrinsic hepatic clearance, Rat” value is 188.4 mL/min/kg. Besides, in the data set on Human hepatocytes, the “Clearance in human hepatocytes (in words)” value was “moderate clearance” and the “Intrinsic hepatic clearance, Human” value was 31.8 mL/min/kg. Moreover, in the data set on MDR1-MDCK II cells, the “Permeability (in words)” value is listed as “high permeability”, the “Papp (AB)” value is 26.42 10^−6 cm/s and the “Papp (BA)” value is on record as 6.63 10^−6 cm/s. Besides, the IC50 at CYP3A4-M was > 50 µM.
For the molecule `N#Cc1sc(-c2ccc(C(=O)O)c(O)c2)c2c1CCC2` [Compound 3], the IC50 at CYP2D6 was > 50 µM. In addition, the IC50 at CYP1A2 is > 50 µM. Besides, the IC50 on CYP2C9 was found to be 14.8 µM. The IC50 at CYP2C19 is > 50 µM. For the same molecule, in the data set with Rat hepatocytes, the “Clearance in rat hepatocytes (in words)” value is “high clearance” and the “Intrinsic hepatic clearance, Rat” value came out at 1097.9 mL/min/kg. In the data set on Human hepatocytes, the “Clearance in human hepatocytes (in words)” value was “moderate clearance” and the “Intrinsic hepatic clearance, Human” value is 48.2 mL/min/kg. Also, in the data set on MDR1-MDCK II cells, the “Permeability (in words)” value is “high permeability”, the “Papp (AB)” value was 38.63 10^−6 cm/s and the “Papp (BA)” value is reported as 10.99 10^−6 cm/s. Further, at CYP3A4-M, the IC50 is > 50 µM.
For the molecule `N#Cc1cn(-c2ccc(C(=O)O)c(O)c2)c2ccccc12` [PF-06743649], the “Side effects after administration in clinical phase I trial” value in [2] is “acute PF-06743649-induced renal injury side effects”.
As for `Cc1nc(-c2ccc(OCC(C)C)c(C#N)c2)sc1C(=O)O` [febusteine], the “Patients who do not achieve the expected goal of lowing uric acid” value in data set [3] is 40% to 52.
